According to publication PMC11113362 (MicrobiologyOpen, 2024):
Entries after “also recorded” stand apart in the source; their conditions may differ. Like-named read-outs stand apart in the source and are kept apart here. Where a SMILES comes first, the peptide text is derived from it.

Experiments:
P. aeruginosa PAO1 = assay: Growth experiments with ligand as sole carbon source; details: M9 minimal medium, 10 mM compound, 37°C
[1] = target: T1, AgtB (PA0604) solute binding protein (Pseudomonas aeruginosa, UniProt Q9I5T4); assay: biochemical
Method: (§1) Experiments were conducted on a VP‐microcalorimeter (Microcal). Proteins were dialyzed into the TMP buffer, placed at a concentration of 20–40 µM into the sample cell and titrated with 0.25–2.5 mM ligand solutions that were prepared using the dialysis buffer immediately before use. […] The mean enthalpies measured from the injection of ligands into the buffer were subtracted from raw titration data before data analysis with the MicroCal version of ORIGIN. Data were fitted with the “One binding site model” of ORIGIN.

[2] = target: T2, PA4985 solute binding protein (Pseudomonas aeruginosa, UniProt Q9HUI0); assay: biochemical; set-up: species or system Pseudomonas aeruginosa PAO1
From the text: PA4985 is an uncharacterized protein. […] .

[3] = target: T3, PA0602 solute binding protein (Pseudomonas aeruginosa, UniProt Q9I5T6); assay: biochemical; set-up: species or system Pseudomonas aeruginosa PAO1; details: for K D: PA0602, microcalorimetric titration, TMP buffer pH 8
From the text: At times thermal shift assays provide […] results, i.e. although there is binding, the Tm shift induced is only minor.

[4] = target: T3, PA0602 solute binding protein; details: thermal shift assay, Biolog compound arrays, more than 2°C considered significant
Method: (§2) Briefly, assays were carried out using a MyIQ2 Real‐Time PCR instrument (BioRad). Experiments were conducted in 96‐well plates, and each assay mixture contained 20.5 μL of the dialyzed protein at 10–50 μM, 2 μL of 5X SYPRO orange (Life Technologies) and 2.5 μL of ligand solution or the equivalent amount of buffer in the ligand‐free control. Compound arrays PM1, PM2a, PM3B, PM4A, PM5, PM6, PM7, and PM8 from Biolog (Newark) were used. Compounds were dissolved in 50 μL water that, according to the information provided by the manufacturer, corresponds to a concentration of 10–20 mM. […] The protein unfolding curves were monitored by detecting changes in SYPRO Orange fluorescence. The Tm values correspond to the minima of the first derivatives of the raw fluorescence data.
The PA0602 protein was overexpressed in E. coli and purified. Freshly dialyzed protein was submitted to thermal shift assays‐based ligand screening using the Biolog compound arrays PM1, PM2A (both carbon sources), PM3B (nitrogen sources), PM4 (phosphorous and sulfur sources), PM5 (nutrient supplements), PM6, PM7, and PM8 (all peptide nitrogen sources). Ligand binding to the protein typically delays thermal unfolding causing increases in the midpoint of the protein unfolding transition (Tm). Tm increases of more than 2°C are considered significant.

[5] = target: T2, PA4985 solute binding protein; details: thermal shift assay, Biolog compound arrays, more than 2°C considered significant
Method: as §2

[6] = target: T1, AgtB (PA0604) solute binding protein; details: microcalorimetric titration, TMP buffer pH 8
Method: as §1

PA4985 = target: T4, PA4985 (Pseudomonas aeruginosa, UniProt Q9HUI0); assay: Isothermal titration calorimetry (VP-microcalorimeter) of 20-40 µM purified SBP titrated with 0.25-2.5 mM ligand in TMP buffer (5 mM Tris-HCl, 5 mM MES, 5 mM PIPES, 10% glycerol, pH 8), fitted with the one binding site model; temperature not stated.
T4 construct: residues 40-363, signal peptide omitted, N-terminal His-tag with thrombin site, expressed in E. coli BL21 (DE3)

PA0602 = target: T5, PA0602 (Pseudomonas aeruginosa, UniProt Q9I5T6); assay: as above
T5 construct: residues 22-344, signal peptide omitted, N-terminal His-tag with thrombin site, expressed in E. coli BL21 (DE3)

P. aeruginosa = tested on: P. aeruginosa; set-up: method as in Dagorn et al., 2013; details: 10 μM GABA; ref Dagorn et al., 2013; cited from earlier work
[7] = target: T1, AgtB (PA0604) solute binding protein; details: thermal shift assay, Biolog compound arrays, more than 2°C considered significant
Method: as §2
To identify the ligands that interact with AgtB, we pursued the same strategy and screened for ligand binding using the PM1 to PM8 compound arrays.

[8] = tested on: AgtS‐LBD (PA0600, amino acids 22–274); assay: Isothermal titration calorimetry of AgtS‐LBD (small ligand and protein‐protein binding studies); details: for K D (binding of SBP to AgtS‐LBD): 5–10 μM SBP titrated with 50–97 μM AgtS‐LBD, no small ligand; for Protein–protein interaction with AgtS‐LBD, His‐tag‐free protein: His‐tag removed by thrombin, in the presence of GABA (PA0602) or 5‐AMV (AgtB); for K D (binding of ligand‐loaded SBP to AgtS‐LBD): both compartments contained 5 mM 5‐AMV (AgtB) or 1 mM GABA (PA0602)
Method: as §1
Fractions that correspond to cleaved protein were dialyzed overnight into the TMP buffer for ITC experiments.
To address this issue, the individual AgtS‐LBD was produced as a purified, recombinant protein.
To assess the possibility of SBP‐mediated activation of AgtS, we conducted protein‐protein microcalorimetric binding studies (Table 1).
Proteins used for these experiments contained an N‐terminal extension harboring the His‐tag. To exclude the possibility that the presence of this extension impedes protein interaction, the tag was cleaved with thrombin in freshly purified PA0602, AgtB, and AgtS‐LBD and its removal was verified by SDS‐PAGE (Figure A4).

[9] = target: T6, AruS‐LBD (PA4982, residues 31–141) (Pseudomonas aeruginosa, UniProt Q9HUI3); assay: Bacterial two‐hybrid assay (BACTH); details: BACTH in E. coli BTH101 on X‐Gal plates; no ligand or GABA, 5‐AMV, spermidine or ethylenediamine at 5 mM
T6 sequence (Q9HUI3 whole entry, looked up): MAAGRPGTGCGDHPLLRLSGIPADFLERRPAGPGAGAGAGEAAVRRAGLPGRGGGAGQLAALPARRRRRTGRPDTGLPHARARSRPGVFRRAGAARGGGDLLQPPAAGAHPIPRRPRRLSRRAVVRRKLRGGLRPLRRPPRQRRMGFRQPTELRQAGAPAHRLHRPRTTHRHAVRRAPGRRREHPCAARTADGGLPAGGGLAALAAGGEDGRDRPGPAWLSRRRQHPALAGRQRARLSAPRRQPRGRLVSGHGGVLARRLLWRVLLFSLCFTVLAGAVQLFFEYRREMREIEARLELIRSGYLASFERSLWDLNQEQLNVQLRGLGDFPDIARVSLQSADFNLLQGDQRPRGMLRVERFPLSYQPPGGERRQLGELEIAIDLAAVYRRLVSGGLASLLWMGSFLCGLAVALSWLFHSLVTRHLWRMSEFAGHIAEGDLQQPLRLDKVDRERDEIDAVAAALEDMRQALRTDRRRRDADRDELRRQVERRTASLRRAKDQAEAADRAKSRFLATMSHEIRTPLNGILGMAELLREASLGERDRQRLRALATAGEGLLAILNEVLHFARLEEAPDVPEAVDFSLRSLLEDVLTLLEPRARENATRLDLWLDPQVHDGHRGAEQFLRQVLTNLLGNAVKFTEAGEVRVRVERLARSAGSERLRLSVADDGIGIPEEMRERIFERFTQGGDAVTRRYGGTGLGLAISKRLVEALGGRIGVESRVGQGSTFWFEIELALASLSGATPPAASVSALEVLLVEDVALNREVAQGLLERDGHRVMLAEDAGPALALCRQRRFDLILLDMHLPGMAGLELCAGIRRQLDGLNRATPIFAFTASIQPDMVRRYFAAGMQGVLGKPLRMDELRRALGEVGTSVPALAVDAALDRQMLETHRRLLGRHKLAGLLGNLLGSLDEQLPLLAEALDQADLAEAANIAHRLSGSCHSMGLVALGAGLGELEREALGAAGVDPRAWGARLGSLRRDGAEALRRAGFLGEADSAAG
Method: Plates were incubated at 30°C for 24–48 h. As a positive control, the plasmids pKT25‐zip and pUT18C‐zip were co‐transformed into E. coli BTH101. Negative controls were E. coli BTH101 harboring pUT18C and pKNT25::AruS (strain K^+T^−), and a strain harboring pUT18C::PA4985 and pKNT25 (strain K^−T^+).
This system is based on an adenylate cyclase that contains two catalytically active domains. […] The resulting increase in cAMP induces the expression of lactose and maltose operons, causing a blue colouration of bacteria on X‐Gal‐containing plates. We generated a plasmid that expresses PA4985 fused to one enzyme subunit (pUT18C::PA4985) and a plasmid encoding a fusion of AruS‐LBD to the other subunit (pKNT25::AruS). E. coli BTH101 was transformed with both plasmids, resulting in strain K^+T^+. The K^+T^− and K^−T^+ are negative control strains that contained one of the plasmid constructs (plus sign) and the empty version of the second plasmid (minus sign). The positive control (C+) was provided by the manufacturer.

Molecule: NCCCCC(=O)O [5‐AMV, 5‐aminovalerate]
- Growth as sole carbon source (P. aeruginosa PAO1): significant growth
- Kd [1]: 17 ± 0.8 µM
- Kd [2]: 1.6 ± 0.1 µM
- Kd [3]: 30 ± 2 µM
- Tm shift [4]: 2.3 °C
- Tm shift [5]: 7.6 °C

Molecule: C[C@H](N)C(=O)NCC(=O)O [Ala‐Gly] (H-Ala-Gly-OH)
- K D [6]: did not reveal binding

Molecule: NCCN [Ethylenediamine, ethylenediamine]
- Kd (PA4985): 19 ± 1 µM
- Kd (PA0602): 103 ± 4 µM
- Tm shift [4]: 2.0 °C
- Tm shift [5]: 3.5 °C

Molecule: NCCCC(=O)O [GABA, γ‐aminobutyrate]
- Growth as sole carbon source (P. aeruginosa PAO1): significant growth
- Kd [2]: 0.58 ± 0.1 µM
- Cytotoxicity and virulence (P. aeruginosa): strongly increased
- Growth or motility (P. aeruginosa): did not modulate
- Kd [3]: 2.3 ± 0.8 µM
- K D [6]: did not reveal binding; also recorded: No binding

Molecule: NCC(=O)N[C@@H](CCC(N)=O)C(=O)O [Gly‐Gln] (H-Gly-Gln-OH)
- K D [6]: did not reveal binding

Molecule: N=C(N)NCCC[C@H](N)C(=O)O [L‐Arg]
- K D ([2]; PA4985, microcalorimetric titration, TMP buffer pH 8): No binding
- Tm shift [5]: No binding

Molecule: CC(=O)N[C@@H]1[C@@H](O)[C@H](O)[C@@H](CO)O[C@@H]1O [N‐acetyl‐D‐glucosamine]
- Tm shift [7]: absence of binding; also recorded: No binding
- Binding of small ligand to AgtS‐LBD ([8]; microcalorimetric titration of AgtS‐LBD): did not show binding
- K D [3]: absence of binding
- K D ([3]; listed as NADG): No binding
- K D [6]: absence of binding; also recorded: No binding
- Tm shift [4]: absence of binding
- Tm shift ([4]; listed as NADG): No binding

Molecule: NCCCCNCCCN [Spermidine, spermidine]
- Growth as sole carbon source (P. aeruginosa PAO1): significant growth
- Kd [2]: 160 ± 23 µM
- K D [3]: No binding
- Tm shift [4]: No binding
- Tm shift [5]: 2.8 °C

Molecule: NCCCCN [putrescine]
- K D [3]: No binding
- Tm shift [4]: No binding

Molecule: NCCC(=O)O [β‐alanine]
- Tm shift [7]: No binding
- K D [6]: No binding

B1: PA4985: solute binding protein (SBP_bac_8) of P. aeruginosa PAO1 encoded near the aruSR TCS (protein)
chain: MGSSHHHHHHSSGLVPRGSHMADDGLVVVGYGGAGQKAQEVAFFQPFTQQTGIPVVQSEYNGEMARIKVMADTGHADWDLVQVEGPDLARGCDDGLFERLDWQAIGGKQQLIANAAQECGSAALVWGVAIGYDADRLQQPPASWADFWDVQRFPGKRGLRKRAIYNLEFALLADGVPREQVYPLLATRAGADRAFAKLGQLKPYIQWWEAGAQPAQWLAAGDVVMTSTYTGRIADAHRAGRNLALVWQGSLYGMDYWAVVKGSKRGAEARRFIAFANAPDAQVRYVENIPYGPTNRQAAQRLPAQLASWVPTAPANLEQGLAMDDEFWVEHGEELEERFNAWASQ
- PA4985/AruS‐LBD interaction [9]: did not demonstrate an interaction; also recorded: absence of an PA4985/AruS–LBD interaction

B2: AgtB: recombinant His‐tagged solute binding protein (SBP_bac_8) of P. aeruginosa PAO1, part of the agt transporter operon (protein)
chain: MGSSHHHHHHSSGLVPRGSHMAVDLTVVSFGGANKSAQIKAFYEPYQKATGNRIVAGEYNGEMAKVKAMVDTNSVSWDLVEVESPELSRGCDEGLFEELDPAQFGKTEDFVPGAIQPCGVGFFVWSTVLAYNADKLKSAPTSWADFWDIKKFPGKRGLRKGAKYTLEFALMADGVAPKDVYGVLATKEGQDRAFKKLDEIKSSIQWWEAGAQPPQYLASGDVVMSSAYNGRIAAVQKESNLKVVWNGGIYDFDAWAIPKGAKKREETLKFIAFSVQPQQQKTYSENIAYGPANKQAVPLLDKALLKDMPTTPENIQNQVAMDVTFWADYGEQLEQRFNAWAAR
- K D (binding of SBP to AgtS‐LBD) [8]: did not show any binding; also recorded: did not reveal binding; also recorded: No binding
- Protein–protein interaction with AgtS‐LBD, His‐tag‐free protein [8]: did not result in any protein–protein interaction
- K D (binding of ligand‐loaded SBP to AgtS‐LBD) [8]: absence of binding

B3: PA0602: recombinant His‐tagged solute binding protein (SBP_bac_8) of P. aeruginosa PAO1 (protein)
chain: MGSSHHHHHHSSGLVPRGSHMAEYVTVISFGGANKEAQETAFYKPFKSATGNRVVHGSYNGDLAKLKRMVEISHVSWDVVEVEAPELARGCEEGLFEKLDMAKVGDPADFVPGAVQPCGVGIFVWTTLLAYNPGKVAGSPQGWADFWDVKKFPGKRGLRWGAKYSLEFALMADGVAPKDVYQTLATPAGVERAFRKLDELKPYIHWWKSGQDPVRDLADGTVVMSSAYNGRIAAAQAEKQRLAMVWSGGVYDFDFWALPVGVWKKQLAEEFIRFASQPEQQKAFAENIAYGPANRKAVGLLDPQVAANLPTAPQNMQNAVGMNVAFWAEHGEALEQRFQNWAKR
- K D (binding of SBP to AgtS‐LBD) [8]: did not show any binding; also recorded: did not reveal binding; also recorded: No binding
- Protein–protein interaction with AgtS‐LBD, His‐tag‐free protein [8]: did not result in any protein–protein interaction
- K D (binding of ligand‐loaded SBP to AgtS‐LBD) [8]: absence of binding
